Results: patent US10828317B2, “Method of treating bacterial infections” (priority 2016, dated 2020)
Where “and” joins values, the source holds several entries; their conditions need not be identical. Equal values may be shown once. Read-outs that look alike come from different tables or passages of the source.

What was measured:
S. marescens EN0454 = test: MIC; type: cell-based, Serratia marescens; settings: Serratia, read-out: MIC
S. typhimurium EN0466 = test: MIC; type: cell-based; settings: Salmonella enterica
K. oxytoca EN0392 = test: MIC; type: cell-based; settings: Klebsiella oxytoca
E. coli EN003 = test: microbe, parasite or virus in culture; type: cell-based, Escherichia coli; settings: Escherichia coli, EN003, combination didanosine+trimethoprim+uridine, Table 10
K. pneumoniae EN010 = test: MIC, WT; type: cell-based, Klebsiella pneumoniae; settings: Klebsiella pneumoniae, read-out: MIC
E. coli EN0138 = test: MIC, ESBL (CTX-M-9); type: cell-based; settings: Escherichia coli, EN0138, combination AZT+trimethoprim+uridine, Table 17B; read-out: MIC
K. pneumoniae EN0233 = test: MIC; type: cell-based; settings: Klebsiella pneumoniae, read-out: MIC
K. pneumoniae EN0142 = test: MIC, OXA-48, CTX-M-15; type: cell-based; settings: Klebsiella pneumoniae, EN0142, combination didanosine+trimethoprim+uridine, Table 20
K. pneumoniae EN0143 = test: MIC, ESBL (SHV-12); type: cell-based; settings: Klebsiella pneumoniae, read-out: MIC
K. pneumoniae EN0144 = test: MIC, MBL (VIM-1); type: cell-based; settings: Klebsiella pneumoniae, read-out: MIC
K. pneumoniae EN0262 = test: MIC, ESBL (+), KPC+; type: cell-based
K. pneumoniae EN0436 = test: MIC, colistinR; type: cell-based; settings: Klebsiella pneumoniae, read-out: MIC
K. pneumoniae EN0437 = test: MIC, colistinR; type: cell-based; settings: Klebsiella pneumoniae, read-out: MIC
[1] = test system: Helicobacter pylori APV00918; test: MIC; type: cell-based; settings: Helicobacter pylori, APV00918, combination FdUrd+trimethoprim+uridine, Table 22A
Excerpt: (§1) Inhibition of Heliobacter is important in view of increasing resistance and its association to gastric cancer.

E. coli = test: Murine peritonitis model; type: in vivo, mice; design: score at sampling: scale not given here
E. coli strain no 2 = test: MIC vs E. coli LMG 15862, penicillin resistant; settings: Escherichia coli
S. flexneri APV00906 = test: microbe, parasite or virus in culture; type: cell-based; settings: Shigella flexneri, APV00906
Excerpt: as §1

[2] = test system: Helicobacter pylori ATTC43504; test: MIC; type: cell-based; settings: Helicobacter pylori, Table 22A, read-out: MIC
Excerpt: as §1

[3] = Infusion of 1-12 g/sq. m., Leyva et al, 1984; cited from earlier work
[4] = EN0454, Combination 1 AZT+trimethoprim+uridine, Table 16
[5] = EN0454, Combination 2 AZT+trimethoprim+uridine+thymidine, Table 16
[6] = EN0454, combination didanosine+trimethoprim+uridine, Table 10
[7] = Combination 1 AZT+trimethoprim+uridine, Table 16
[8] = combination AZT+trimethoprim+uridine, Table 6
[9] = combination FdUrd+trimethoprim+uridine, Table 8
[10] = EN0392, Combination 1 AZT+trimethoprim+uridine, Table 16
[11] = EN0392, combination AZT+trimethoprim+uridine, Table 6
[12] = EN0392, combination FdUrd+trimethoprim+uridine, Table 8
[13] = EN0144, combination didanosine+trimethoprim+uridine, Table 20
[14] = Trimethoprim 30 mg/kg, per mouse

For `COc1cc(Cc2cnc(N)nc2N)cc(OC)c1OC` [Trimethoprim, trimethoprim], the MIC (S. marescens EN0454; [4]) was > 4 µg/mL, the MIC (S. marescens EN0454; [5]) was > 4 µg/mL and the MIC (S. marescens EN0454; EN0454, combination AZT+trimethoprim+uridine, Table 6) was 1 µg/mL. For the same compound, the MIC (S. marescens EN0454; EN0454, combination FdUrd+trimethoprim+uridine, Table 8) was > 8 µg/mL, the MIC (S. marescens EN0454; [6]) was > 8 µg/mL and the MIC (S. typhimurium EN0466; [7]) was 0.064 µg/mL. For the same compound, the MIC (S. typhimurium EN0466; Combination 2 AZT+trimethoprim+uridine+thymidine, Table 16) was 0.5 µg/mL, the MIC (S. typhimurium EN0466; [8]) was 0.06 µg/mL and the MIC (S. typhimurium EN0466; [9]) was 0.25 µg/mL. The MIC (S. typhimurium EN0466; combination didanosine+trimethoprim+uridine, Table 10) was 0.5 µg/mL, the MIC (K. oxytoca EN0392; [10]) was 0.064 µg/mL and the MIC (K. oxytoca EN0392; EN0392, Combination 2 AZT+trimethoprim+uridine+thymidine, Table 16) was 0.5 µg/mL. It also gave an MIC (K. oxytoca EN0392; [11]) of 0.06 µg/mL, an MIC (K. oxytoca EN0392; [12]) of 0.25 µg/mL and an MIC (K. oxytoca EN0392; EN0392, combination didanosine+trimethoprim+uridine, Table 10) of 0.5 µg/mL. For the same compound, the MIC (E. coli EN003) was 0.064 µg/mL, the MIC (K. pneumoniae EN010; EN010, Combination 2 AZT+trimethoprim+uridine+thymidine, Table 16) was 1 µg/mL and the MIC (K. pneumoniae EN010; EN010, combination AZT+trimethoprim+uridine, Table 6) was 0.5 µg/mL. For the same compound, the MIC (K. pneumoniae EN010; EN010, combination FdUrd+trimethoprim+uridine, Table 8) was 1 µg/mL, the MIC (K. pneumoniae EN010; EN010, combination didanosine+trimethoprim+uridine, Table 10) was 1 µg/mL and the MIC (E. coli EN0138) was 0.016 µg/mL. The MIC (K. pneumoniae EN0233; EN0233, combination FdUrd+trimethoprim+uridine, Table 19) was 1 µg/mL, the MIC (K. pneumoniae EN0233; EN0233, combination didanosine+trimethoprim+uridine, Table 20) was 2 µg/mL and the MIC (K. pneumoniae EN0142) was > 8 µg/mL. The MIC (K. pneumoniae EN0143; EN0143, combination AZT+trimethoprim+uridine, Table 17B) was > 4 µg/mL, the MIC (K. pneumoniae EN0143; EN0143, combination FdUrd+trimethoprim+uridine, Table 19) was > 8 µg/mL and the MIC (K. pneumoniae EN0143; EN0143, combination didanosine+trimethoprim+uridine, Table 20) was > 8 µg/mL. For the same compound, the MIC (K. pneumoniae EN0144; EN0144, combination AZT+trimethoprim+uridine, Table 17B) was 1 µg/mL, the MIC (K. pneumoniae EN0144; EN0144, combination FdUrd+trimethoprim+uridine, Table 19) was > 8 µg/mL and the MIC (K. pneumoniae EN0144; [13]) was > 8 µg/mL. The MIC (K. pneumoniae EN0262; Klebsiella pneumoniae, EN0262, combination AZT+trimethoprim+uridine, Table 17B and 18, read-out: MIC) was 0.5 µg/mL, the MIC (K. pneumoniae EN0262; Klebsiella pneumoniae, EN0262, combination FdUrd+trimethoprim+uridine, Table 19 and 21, read-out: MIC) was 4 µg/mL and the MIC (K. pneumoniae EN0262; Klebsiella pneumoniae, EN0262, combination didanosine+trimethoprim+uridine, Table 20 and 21, read-out: MIC) was 4 µg/mL. It also gave an MIC (K. pneumoniae EN0262; combination AZT+trimethoprim+uridine, Table 17B and 18) of 0.5 µg/mL, an MIC (K. pneumoniae EN0262; combination FdUrd+trimethoprim+uridine, Table 19 and 21) of 4 µg/mL and an MIC (K. pneumoniae EN0262; combination didanosine+trimethoprim+uridine, Table 20 and 21) of 4 µg/mL. The MIC (K. pneumoniae EN0436; EN0436, combination FdUrd+trimethoprim+uridine, Table 19) was 0.5 µg/mL, the MIC (K. pneumoniae EN0436; EN0436, combination didanosine+trimethoprim+uridine, Table 20) was 0.5 µg/mL and the MIC (K. pneumoniae EN0437; EN0437, combination AZT+trimethoprim+uridine, Table 17B) was > 4 µg/mL. For the same compound, the MIC (K. pneumoniae EN0437; EN0437, combination FdUrd+trimethoprim+uridine, Table 19) was > 8 µg/mL, the MIC (K. pneumoniae EN0437; EN0437, combination didanosine+trimethoprim+uridine, Table 20) was > 8 µg/mL and the MIC [1] was 0.125 µg/mL. The “CFU/ml PF” value (E. coli; [14]) was 9.50E+03 CFU/ml and 1.60E+06 CFU/ml and 3.25E+05 CFU/ml and 4.75E+05 CFU/ml, the “log CFU/ml PF” value (E. coli; [14]) was 3.98 log CFU/ml and 6.20 log CFU/ml and 5.51 log CFU/ml and 5.68 log CFU/ml and the score at sampling (E. coli; [14]) was 1. The “inhibition in mice infected with E. coli (in words)” value (E. coli; murine peritonitis model) was “slight inhibition”, the MIC (E. coli strain no 2; NO2, read-out: MIC FdUrd/Trimethoprim (1:2), uridine 10 μg/ml, thymidine 10 μM) was > 40 µg/mL and the MIC (E. coli strain no 2; NO2, read-out: MIC FdUrd/Trimethoprim (1:2), uridine 100 μg/ml, thymidine 10 μM) was > 40 µg/mL.

In the case of `O=c1ccn([C@@H]2O[C@H](CO)[C@@H](O)[C@H]2O)c(=O)[nH]1` [Uridine, uridine], the MIC (S. marescens EN0454; [4]) is reported as > 400 µg/mL, the MIC (S. marescens EN0454; [5]) is reported as > 400 µg/mL and the MIC (S. marescens EN0454; [6]) is reported as > 400 µg/mL. For the same compound, the MIC (S. typhimurium EN0466; [7]) was 6.4 µg/mL, the MIC (S. typhimurium EN0466; [8]) was 16 µg/mL and the MIC (S. typhimurium EN0466; [9]) was 13 µg/mL. For the same compound, the MIC (K. oxytoca EN0392; [10]) was 6.4 µg/mL, the MIC (K. oxytoca EN0392; [11]) was 16 µg/mL and the MIC (K. oxytoca EN0392; [12]) was 13 µg/mL. The MIC (E. coli EN003) was 6 µg/mL, the MIC (K. pneumoniae EN0142) was > 400 µg/mL and the MIC (K. pneumoniae EN0144; [13]) was > 400 µg/mL. For the same compound, the MIC (S. flexneri APV00906) was > 400 µg/mL, the MIC ([2]; ATTC43504, combination AZT+trimethoprim+uridine) was 13 µg/mL and the MIC ([2]; ATTC43504, combination FdUrd+trimethoprim+uridine) was 6 µg/mL. The plasma levels [3] was “up to 500 μg/ml”.
